Test system: 633275-114-R-J1-PDC complex spheroids, viability
Test: Anticancer human tumor 633275-114-R-J1-PDC patient-derived endometrial adenocarcinoma cell line growth inhibition [GQUAD]
Details: for IC50: curve of first compound; for viability, T/C: stronger effect = lower value
Text: DNA G-quadruplex Stabilizer Agents in Combinations in Complex Spheroids
A high-throughput screen of multi-cell type tumor spheroids was designed to identify active combinations of DNA G-quadruplex stabilizer agents and targeted small molecules. Complex spheroids include a stromal component modeled by human endothelial cells (HUVEC) and fibroblasts modeled by human mesenchymal stem cells (MSCs). The concentration ranges selected for each drug and investigational agent were based upon clinically achievable concentrations if the clinical Cmax of the agent was known.
Compounds. The drugs and investigational agents: pidnarulex (CX-5461; NSC782164), APTO-253 (NSC789042), BRACO-19 (NSC847499), peposertib (NSC802822), ceralasertib (NSC780249), elimusertib (NSC800525), camonsertib (NSC841442), AZD-1390 (NSC803789), olaparib (NSC753686), talazoparib (NSC767125), ART-558 (NSC835418), sotorasib (NSC818433), MRTX-1133 (NSC836407), SN-38 (NSC673596), topotecan (NSC609699), etoposide (NSC141540), doxorubicin (NSC123127), gemcitabine (NSC613327), 5-fluorouracil (NSC19893), paclitaxel (NSC125973), vemurafenib (NSC761431), panobinostat (NSC761190), R-306465 (JNJ-16241199; NSC773264), adavosertib (NSC754352), TP-3654 (NSC805149), carboplatin (NSC241240), KSQ-4279 (NSC840948), and staurosporine (NSC755774) were obtained from the National Cancer Institute (NCI) Developmental Therapeutics Program Chemical Repository (34). The FDA-approved anticancer drug set is available from the NCI Developmental Therapeutics Program. […] The stock solutions were prepared in dimethyl sulfoxide (DMSO, Sigma-Aldrich, St. Louis, MO, cat. D2650) at 800-fold the tested concentration and stored at -70 degrees C prior to their use. All drugs and investigational agents were tested over a range starting from a high concentration at or near the clinical Cmax and decreasing in half-log increments. If the clinical Cmax for an agent had not been determined, the highest concentration tested was 10 microM.
2.3 Cell Culture. All cells were maintained in an incubator at 37 degrees C and 5% CO2 with 95% humidity. The PDC lines were cultured according to standard operating procedures established by the NCI PDMR. All PDCs were thawed and cultured in Matrigel-coated flasks prepared with a working solution of 1X Ham's F-12 nutrient mix, without supplementation (Invitrogen, cat. 11765054), 100 U/mL penicillin-streptomycin (Invitrogen, cat. 15140122), and 2.5% Matrigel (Corning Inc., cat. 354248) for the first three passages. The 857933-349-R-J2-PDC line was cultured in 6C/Colon 1B media, which includes advanced DMEM/F-12 (Thermo Fisher Scientific, cat. 12634028), 10 mM HEPES (Thermo Fisher Scientific, cat. 15630080), 1X GlutaMAX supplement (Thermo Fisher Scientific, cat. 35050061), 0.1 mg/mL primocin (InvivoGen, cat. ant-pm-2), 10% defined fetal bovine serum, heat inactivated (HyClone Laboratories Inc., cat. SH30070.03HI), 50% L-WRN conditioned media (ATCC, cat. CRL-3276), 1.25 mM N-Acetyl-L-cysteine (Sigma-Aldrich, cat. A9165), 10 mM nicotinamide (Sigma-Aldrich, cat. N0636), 1X B-27 supplement (Thermo Fisher Scientific, cat. 17504044), 1X N-2 supplement (Thermo Fisher Scientific, cat. 17502048), 10 microM Y-27632 dihydrochloride (Tocris Bioscience, cat. 1254), and 50 ng/mL human EGF recombinant protein (Thermo Fisher Scientific, cat. PHG0311). The 485176-168-R4-J1-PDC line was cultured in Panc media, which includes all 6C/Colon 1B media components plus 100 ng/mL human FGF-10 (Thermo Fisher Scientific, cat. 100-26), 500 nM SB-431542 (Selleckchem, cat. S1067), and gastrin (Tocris, cat. 3006).
[…]
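Note: spheroids exposed to the agents for seven days.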
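Throughout, for viability, T/C: percent of DMSO vehicle control viability which is 100%.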

## CC(C)(O)C1CCC(Nc2ccc3ncc(-c4cccc(C(F)(F)F)c4)n3n2)CC1 (configuration not stated) + CN(C)c1ccc(Nc2c3ccc(NC(=O)CCN4CCCC4)cc3nc3cc(NC(=O)CCN4CCCC4)ccc23)cc1
Second compound 0.0316 µM
  IC50: 1850 nM
Second compound 0.1 µM
  IC50: 1990 nM
Second compound 0.316 µM
  IC50: 2090 nM
Second compound 1 µM
  IC50: 1820 nM
Second compound 3.16 µM
  IC50: 1310 nM
Second compound 10 µM
  IC50: < 31.6 nM
Second compound 0.0316 µM, first compound 0.0316 µM
  viability, T/C: 102%
Second compound 0.0316 µM, first compound 0.1 µM
  viability, T/C: 96.8%
Second compound 0.0316 µM, first compound 0.316 µM
  viability, T/C: 90.1%
Second compound 0.0316 µM, first compound 1 µM
  viability, T/C: 72.2%
Second compound 0.0316 µM, first compound 3.16 µM
  viability, T/C: 28.8%
Second compound 0.0316 µM, first compound 10 µM
  viability, T/C: 32.2%
Second compound 0.1 µM, first compound 0.0316 µM
  viability, T/C: 94%
Second compound 0.1 µM, first compound 0.1 µM
  viability, T/C: 99.9%
Second compound 0.1 µM, first compound 0.316 µM
  viability, T/C: 88.2%
Second compound 0.1 µM, first compound 1 µM
  viability, T/C: 70.4%
Second compound 0.1 µM, first compound 3.16 µM
  viability, T/C: 32.8%
Second compound 0.1 µM, first compound 10 µM
  viability, T/C: 39.7%
Second compound 0.316 µM, first compound 0.0316 µM
  viability, T/C: 97.6%
Second compound 0.316 µM, first compound 0.1 µM
  viability, T/C: 87.7%
Second compound 0.316 µM, first compound 0.316 µM
  viability, T/C: 92.6%
Second compound 0.316 µM, first compound 1 µM
  viability, T/C: 76.1%
Second compound 0.316 µM, first compound 3.16 µM
  viability, T/C: 32.7%
Second compound 0.316 µM, first compound 10 µM
  viability, T/C: 37.8%
Second compound 1 µM, first compound 0.0316 µM
  viability, T/C: 94.6%
Second compound 1 µM, first compound 0.1 µM
  viability, T/C: 97.2%
Second compound 1 µM, first compound 0.316 µM
  viability, T/C: 88.3%
Second compound 1 µM, first compound 1 µM
  viability, T/C: 73%
Second compound 1 µM, first compound 3.16 µM
  viability, T/C: 27.8%
Second compound 1 µM, first compound 10 µM
  viability, T/C: 28.2%
Second compound 3.16 µM, first compound 0.0316 µM
  viability, T/C: 85.4%
Second compound 3.16 µM, first compound 0.1 µM
  viability, T/C: 69.2%
Second compound 3.16 µM, first compound 0.316 µM
  viability, T/C: 81.9%
Second compound 3.16 µM, first compound 1 µM
  viability, T/C: 59.5%
Second compound 3.16 µM, first compound 3.16 µM
  viability, T/C: 19.1%
Second compound 3.16 µM, first compound 10 µM
  viability, T/C: 20.4%
Second compound 10 µM, first compound 0.0316 µM
  viability, T/C: 33.1%
Second compound 10 µM, first compound 0.1 µM
  viability, T/C: 32.3%
Second compound 10 µM, first compound 0.316 µM
  viability, T/C: 23.7%
Second compound 10 µM, first compound 1 µM
  viability, T/C: 21.1%
Second compound 10 µM, first compound 3.16 µM
  viability, T/C: 7.71%
Second compound 10 µM, first compound 10 µM
  viability, T/C: 6.08%

— PubChem BioAssay AID2060505 (Molecular Pharmacology Branch, DTP, NCI, 2025)
